The values that follow are results of earlier work, collected in US6875451B2, “Compositions and methods for the treatment of primary and metastatic neoplastic diseases using arsenic compounds” (PolaRx Biopharmaceuticals Inc., priority 1997, dated 2005).

The structures appear in SMILES notation.

In this data set the test system is cell lines representative of chronic B-cell leukemia. Conditions: cited from earlier work.

With `Nc1nc(N)nc(Nc2ccc([As]3SCC(CO)S3)cc2)n1` (stereo not shown) [melarsoprol], the apoptosis entry was “induce apoptosis”.
